This note sets out measurements from paper PMC3069034, “Structuring Detergents for Extracting and Stabilizing Functional Membrane Proteins” (PLoS ONE, 2011).

Usually Kd stands for a measure of binding affinity in units of concentration. Low readings indicate higher affinity, high ones lower affinity.

Each structure is given as a SMILES string.

The test addresses BmrA (Bacillus subtilis, UniProt O06967). As to the kind of experiment: intrinsic tryptophan fluorescence quenching of purified protein. The format is binding. From the text: intrinsic tryptophan fluorescence quenching of purified protein on BmrA | the binding of daunorubicin was similar for both detergents.

Chain of BmrA (O06967 whole entry): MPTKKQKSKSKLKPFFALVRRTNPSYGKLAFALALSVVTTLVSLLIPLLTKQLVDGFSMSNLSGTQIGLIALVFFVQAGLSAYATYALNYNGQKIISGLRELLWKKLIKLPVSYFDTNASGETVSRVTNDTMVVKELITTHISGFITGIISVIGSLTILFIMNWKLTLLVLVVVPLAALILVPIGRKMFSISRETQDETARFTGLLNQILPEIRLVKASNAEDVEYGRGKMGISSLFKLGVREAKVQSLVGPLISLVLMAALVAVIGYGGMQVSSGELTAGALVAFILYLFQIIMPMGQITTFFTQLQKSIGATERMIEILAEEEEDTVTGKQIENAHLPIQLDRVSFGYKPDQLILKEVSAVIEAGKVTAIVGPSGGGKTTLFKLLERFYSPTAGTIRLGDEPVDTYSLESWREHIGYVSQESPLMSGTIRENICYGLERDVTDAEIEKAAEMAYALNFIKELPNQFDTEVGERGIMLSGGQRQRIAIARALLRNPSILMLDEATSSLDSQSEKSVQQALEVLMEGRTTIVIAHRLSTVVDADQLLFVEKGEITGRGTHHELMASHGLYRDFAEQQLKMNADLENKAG

Take `COc1cccc2c1C(=O)c1c(O)c3c(c(O)c1C2=O)C[C@@](O)(C(C)=O)C[C@@H]3O[C@H]1C[C@H](N)[C@H](O)[C@H](C)O1` [daunorubicin]: the Kd came out at 12.4 ± 0.8 µM.
